The text below walks through data of patent US12576085B2, “Combination comprising an ATP analog and an adenosine receptor antagonist or a nucleobase/nucleoside analog for the treatment of cancer” (priority 2010, dated 2026).

Data set [1] has as its system adenine nucleobase transporters. The conditions noted are these: read-out: IC50 for inhibition of adenine transport; 1 μM [3H]adenine, hRPTCs, sodium buffer pH 7.4, 2 minute incubation.
Method: Human renal proximal tubule cells (hRPTCs) were seeded in 12-well plates at densities of 10^5 cells/well and grown for 7 days with medium changes every 3-4 days. On the day of experiments, growth medium was aspirated and cells were washed twice with 1.5 ml of 20 mM Tris-HCl buffer (pH 7.4) containing 150 mM NaCl, 1.2 mM MgCl2 and 1 mM CaCl2 (hereafter referred to as sodium buffer). […] At the end of 2 minute incubations, cells were washed twice with sodium buffer and intracellular accumulation of [^3H]adenine was determined by solubilizing cells with 5% Triton-X-100 and subsequent determination of radioactivity in a scintillation counter. Data are presented as percent of values obtained in the absence of a competitor (controls). Resulting concentration-effect curves were analyzed by nonlinear regression analysis using Graph Pad Prism software version 4.0 (Graph Pad Software Inc., San Diego, CA) to obtain IC50 values for the compounds.
A further data set deals with T84 cells. Nature of the data set: Short-circuit current (ISC, Cl- secretion) in T84 cells in Ussing chambers. Format: cell-based, human. The conditions noted are these: for currents on apical addition of the TKI / increase in ISC on basolateral addition of the compound alone: erlotinib 20 μM, gefitinib 100 μM; for increase in ISC on basolateral addition of the compound alone: NBMPR 10 μM, imatinib 100 μM, no extracellular adenosine added; for effect of antagonist on currents induced by imatinib and adenosine: 10 μM antagonist after 100 μM imatinib and 1 μM adenosine. The protocol: T84 cells were routinely grown in DMEM/F12 (1:1) cell culture media with 10% FBS, 1 mM sodium pyruvate, 1× penicillin/streptomycin and 10 mM HEPES. For experiments described in this report, T84 cells were grown on 12 mm snapwell inserts for 6-8 days with media changes every 2-3 days. […] Compounds were added in small aliquots to the basolateral or apical chamber and the secretory response was measured as an increase in short-circuit current (ISC) due to Cl^− secretion and was monitored as a function of time.

For data set [2] the following is noted: patients treated with erlotinib; cited from earlier work.
For data set [3] the following is noted: cited from earlier work.

SMILES strings stand for the structures.

Take `COc1cc2c(Nc3ccc(Br)cc3F)ncnc2cc1OCC1CCN(C)CC1` [vandetanib]: the IC50 in data set [1] was no less than 100 µM.
With `C#Cc1cccc(Nc2ncnc3cc(OCCOC)c(OCCOC)cc23)c1` [erlotinib], the “currents on apical addition of the TKI” value in the data set with T84 cells (FIG. 12) is on record as “slow increase in currents”. Besides, the “increase in ISC on basolateral addition of the compound alone” value (shortened to “increase in ISC on basolateral addition”) in the data set with T84 cells (basolateral) is “increase in ISC similar to that of NBMPR”. In data set [2], the “patients who develop diarrhea” value is 30%.
As to `CCN(CC)CCNC(=O)c1c(C)[nH]c(/C=C2\C(=O)Nc3ccc(F)cc32)c1C` [sunitinib], the IC50 in data set [1] is 50 µM.
With `Cn1c(=O)c2[nH]c(-c3ccccc3)nc2n(C)c1=O` [8-PT, 8-phenyltheophylline], the “effect of antagonist on ISC induced by adenosine then NBMPR” value with T84 cells (10 μM 8-PT after 1 μM adenosine and 10 μM NBMPR, basolateral, FIG. 4) was “ISC returned to baseline levels”. Also, in the data set on T84 cells (10 μM 8-PT after 20 μM erlotinib and 1 μM adenosine, basolateral, FIG. 8), the “effect of antagonist on currents induced by erlotinib and adenosine” value is “abolished”. In addition, the “effect of antagonist on currents induced by gefitinib and adenosine” value with T84 cells (10 μM 8-PT after 100 μM gefitinib and 1 μM adenosine, basolateral, FIG. 9) is “abolished”. Moreover, the “effect of antagonist on currents induced by apical erlotinib or gefitinib” value with T84 cells (10 μM 8-PT apical, FIG. 12) is “abolished”. Besides, the “induction of ISC by adenosine after pretreatment with antagonist” value in the data set on T84 cells (10 μM 8-PT basolateral prior to 1 μM adenosine basolateral, FIG. 7 panel C) is given as “no induction of ISC”. Also, in the data set on T84 cells (basolateral, FIG. 10), the “effect of antagonist on currents induced by imatinib and adenosine” value was “abolished”. Also, in the data set on T84 cells (8-PT after 10 μM NBMPR and 1 μM adenosine, basolateral, FIG. 6), the “effect of antagonist on ISC induced by NBMPR then adenosine” value is “reversed the increase in ISC to baseline activity”.
For `O=c1[nH]cc(F)c(=O)[nH]1` [5-FU, 5-fluorouracil], in data set [3], the half-life was 20 min.
With `Nc1ncnc2c1ncn2[C@@H]1O[C@H](CO)[C@@H](O)[C@H]1O` [adenosine], in the data set on T84 cells (1 μM adenosine after 10 μM NBMPR, basolateral, FIG. 6), the “ISC on addition of adenosine after NBMPR” value is “substantial increase in ISC”. Moreover, the “currents on addition of adenosine after erlotinib” value with T84 cells (1 μM adenosine after 20 μM erlotinib, basolateral, FIG. 8) is reported as “substantial induction of currents”. Further, in the data set on T84 cells (1 μM adenosine after 100 μM gefitinib, basolateral, FIG. 9), the “currents on addition of adenosine after gefitinib” value is “substantial induction of currents”. Moreover, in the data set with T84 cells (1 μM adenosine after 100 μM imatinib, basolateral, FIG. 10), the “currents on addition of adenosine after imatinib” value is given as “substantial induction of currents”. In addition, in the data set with T84 cells (1 μM adenosine, apical or both sides versus basolateral, FIG. 11), the “currents on addition of adenosine to apical and both sides” value is reported as “much higher currents than on the basolateral side alone”. In addition, in the data set with T84 cells (adenosine basolateral in 1 μM increments, FIG. 7 panel A), the “ISC with increasing concentrations of adenosine” value is “ISC increased”.
Regarding `COc1cc2ncnc(Nc3ccc(F)c(Cl)c3)c2cc1OCCCN1CCOCC1` [gefitinib], the “currents on apical addition of the TKI” value in the data set on T84 cells (FIG. 12) was “slow increase in currents”. The “increase in ISC on basolateral addition” value with T84 cells (basolateral) is “slow but steady increase in ISC similar to that of NBMPR”.
`O=[N+]([O-])c1ccc(CSc2ncnc3c2ncn3[C@@H]2O[C@H](CO)[C@@H](O)[C@H]2O)cc1` [NBMPR, nitrobenzylmercaptopurine riboside]: the “ISC on addition of NBMPR after adenosine” value with T84 cells (10 μM NBMPR after 1 μM adenosine, basolateral, FIG. 4) is listed as “much higher ISC”. The “induction of currents by NBMPR (retest)” value in the data set on T84 cells (20 μM NBMPR basolateral, FIG. 7 panel B) is given as “Induction of currents”. Moreover, the “increase in ISC on basolateral addition” value with T84 cells (basolateral) is “steady increase in ISC with time”.
`Cn1c(=O)c2[nH]cnc2n(C)c1=O` [theophylline]: the “effect of antagonist on currents induced by imatinib and adenosine” value with T84 cells (basolateral, FIG. 10) is “abolished”. For the same molecule, the “effect of antagonist on adenosine induced increase in ISC” value with T84 cells (10 μM antagonist, adenosine alone, FIG. 5) is recorded as “blocked”.

A word on the IC50: it is the concentration that inhibits the measured activity by half. In general, half-life refers to the time in which the quantity being followed falls by half.
